Side chains are listed from the residue outwards. Ends that are not written are not given here.

Test [1] deals with euglobulin clot. The experiment in a line: Euglobulin clot lysis. The test is classed as biochemical, Pig. Particulars: 10 μL of 1 mM solution; after 4 h; n = 3. Here is the method:
Pig blood was taken and mixed with 3.8% sodium citrate in a volume ratio of 9:1, immediately centrifuged at 3000 r/min for 10 min, and platelet-poor plasma was separated. 2 mL platelet-poor pig plasma and 36 mL ultrapure water were added into a 50 mL centrifuge tube. In each tube, 0.4 mL acetic acid (1%) was added and thoroughly mixed, and the tube was placed in a 4° C. refrigerator for 10 min and then centrifuged at 3000 r/min for 10 min. The centrifuge tubes were inverted, and then the inner wall of the tubes was dried using a filter paper after the liquid was drained. The euglobuin pellets resulting from centrifugation was freeze-dried for about 40 min and scratched out. About 35 mg euglobuin was taken and dissolved in 7 ml borax buffer (pH 9.28). The euglobuin were mostly dissolved after 1 h, into which 0.7 mL CaCl2 solution (25 mM) was added, and immediately plated on a 10×10 cm glass plate with a thickness of about 1 mm. After clot formation, 10 μL normal saline, or 10 μL of a solution of one of compounds Ia to Il in normal saline (1 mM) or 10 μL of a urokinase solution in normal saline (0.8 mg/mL) was pipetted and spotted onto the clot plate, with an interval between every two drops more than 1.5 cm, and each sample was spotted 3 times.

Test [2] relates to thrombus from rat arterial blood. Briefly: In vitro thrombolysis. As to conditions: 100 nM, 2 h at 37° C., n = 6. Details: species or system SD rats. Here is the method:
SD rats (male, 350 to 400 g) were anaesthetized by intraperitoneal injection of a urethane solution at a dosage of 1200 mg/kg. The anaesthetized rats were fixed in a supine position, and the right common carotid artery was dissected, clamped at the proximal end with an arterial clip, and penetrated with a suture at the proximal and distal ends, respectively. The suture at the distal end is clipped tightly by a hemostatic clamp at the fur. Cannulation was performed at the distal end, the artery clamp was removed, and the total arterial blood was discharged into a 50 ml container previously treated with silicone oil. […] rat arterial blood was injected into a vertically fixed glass tube (20 mm in length, with an inner diameter of 4 mm and an outer diameter of 5 mm, sealed with a rubber stopper at the bottom), into which was immediately inserted a thrombus immobilization screw made of stainless steel. […] 40 min after the blood was coagulated, the rubber stopper at the bottom of the glass tube was removed, the stem of the thrombus immobilization screw was nipped by forceps, and the thrombus-wrapped thrombus immobilization screw was carefully taken out from the glass tube. The screw was then suspended and dipped in triple-distilled water to remove excessive blood, and accurately weighed after 1 h. The thrombus was suspended in 8 mL of normal saline, or a solution of compounds Ia-Il in normal saline (at a concentration of 100 nM), or a solution of ARPAK (SEQ. ID NO. 4), GRPAK (SEQ. ID NO. 5), RPAK (SEQ. ID NO. 3) or PAK in normal saline (at a concentration of 100 nM), or a solution of urokinase in normal saline (100 IU/mL), then shaked at 37° C. in a thermostatic shaker (63 r/min), and removed after 2 h and accurately weighed to determine the weight of the thrombus.

Test [3] concerns thrombus. The experiment in a line: In vivo thrombolysis, rat arteriovenous bypass thrombolysis model. Details: species or system SD rats. Particulars: 0.1 μmol/kg, after 1 h, n = 10. Here is the method:
SD rats (male, 220 to 230 g) were anaesthetized by intraperitoneal injection of a urethane solution at a dosage of 1200 mg/kg. The anaesthetized rats were fixed in a supine position, and the right common carotid artery was dissected, clamped at the proximal end with an arterial clip, and penetrated with a suture at the proximal and distal ends, respectively. The suture at the distal end is clipped tightly by a hemostatic clamp at the fur. Cannulation was performed at the distal end, the arterial clamp was removed, and about 1 ml arterial blood was discharged into a 1 ml eppendorf. 0.1 ml rat arterial blood was injected into a vertically fixed glass tube (15 mm in length, with an inner diameter of 2.5 mm and an outer diameter of 5.0 mm, sealed with a rubber stopper at the bottom), into which was immediately inserted a thrombus immobilization screw made of stainless steel. […] 15 min after the blood was coagulated, the rubber stopper at the bottom of the glass tube was removed, the stem of the thrombus immobilization screw was nipped by forceps, and the thrombus-wrapped thrombus immobilization screw was carefully taken out of the glass tube and then accurately weighed.
A bypass cannula was composed of 3 segments. The middle segment was a polyethylene tubing having a length of 60.0 mm and an inner diameter of 3.5 mm. The segments on both ends were similar polyethylene tubes having a length of 100.0 mm, an inner diameter of 1.0 mm and an outer diameter of 2.0 mm, one end of which was pulled to form a tip, with an outer diameter of 1.0 mm, that could be inserted into the rat carotid artery or vein, and the other end of which was sheathed by a polyethylene tube having a length of 7.0 mm and an outer diameter of 3.5 mm (thickened in order to be inserted into the polyethylene tubing of the middle segment). The inner wall of the 3-segment cannula was entirely silylated (with 1% silicone oil in ethyl ether). The thrombus-wrapped thrombus immobilization screw was placed into the polyethylene tubing of the middle segment, and both ends of the tubing sheathed the thickened ends of the two polyethylene tubes. The cannula was filled with a heparin solution in normal saline (50 IU/kg) through the tip end by using an injector and was ready for use. The trachea of the anaesthetized rat was then dissected and tracheal cannulation was performed. The left external carotid vein of the rat was dissected, and penetrated with a suture at the proximal and distal ends, respectively. An uneven open incision was careful made on the exposed left external carotid vein, and the tip of the bypass cannula prepared as described above was inserted into the proximal end of the open incision in the left external carotid vein, away from the stem of the thrombus immobilization screw in the middle segment of the bypass cannula (which accommodated the accurately weighed thrombus immobilization screw). A precise amount of heparin in saline (50 IU/kg) was injected through the tip at the other end by using an injector. At this moment, without removing the injector from the ethylene tube, the tubing between the injector and the polyethylene tube was clamped with forceps. The blood flow was stopped by clamping the proximal end of the right common carotid artery with an arterial clip, and an uneven open incision was cut carefully across the common carotid artery near the clip. The injector was pulled out of the tip of the polyethylene tube, and the tip of the polyethylene tube was then inserted into the proximal end of the artery open incision. Both ends of the bypass cannula were fixed to the artery or vein with #4 sutures. […]

The test system of test [4] is rats with stroke. Briefly: Cerebral infarction volume after immediate treatment of stroke (TTC staining). The test is classed as in vivo, SD rats. Particulars: n = 10. How it is done: After the rats were awake for 24 h and assessed for their degree of damage in neural function in Experimental example 6, they were anesthesized with urethane followed by immediate decapitation and removal of the brain. Brain tissues were kept in a −20° C. refrigerator for 2 h, and coronal sections of about 2 mm were successively sliced from the prefrontal end for a total of 6 sections, and then placed into a 2% TTC solution to incubate in darkness at 37° C. for 30 min. The color change in brain sections was observed: normal brain tissues were stained red by TTC, while ischemic brain tissues, i.e., brain tissues with infracts, appeared in a white color. Photographs were taken by using a digital camera and processed with SPSS statistics software, and the volume of infarction in brain tissues and the volume of normal brain tissues in the coronal sections were calculated.

Regarding “1,3-dioxo-2-{4′-oxyacetyl-[N^ω-(Pro-Ala-Lys)-Lys-Arg-Gly-Asp-Ser]phenyl}-4,4,5,5-tetramethylimidazoline (K([Lys-Ala-Pro])RGDS; not fully specified (N-terminus); also: 4′-oxyacetylphenyl-1,3-dioxo-4,4,5,5-tetramethylimidazoline (nitronyl nitroxide) conjugate, attachment amine not clear) [Ij]”, the “Diameter (Mean ± SD mm) of euglobulin clot lysis” value in test [1] is given as 4.0 mm. For the same substance, the “Weight reduction in thrombus (Mean ± SD mg)” value was 26.16 ± 3.15 mg in test [2] and 14.89 ± 1.84 mg in test [3]. Further, the “Percentage of infarction volume (Mean ± SD %)” value in test [4] is 6.84 ± 0.82%.
Taken in the same sequence, the figures for “1,3-dioxo-2-{4′-oxyacetyl-[N^ω-(Ala-Arg-Pro-Ala-Lys)-Lys-Arg-Gly-Asp-Phe]phenyl}-4,4,5,5-tetramethylimidazoline [Ic]” were 3.8 mm, 27.33 ± 2.07 mg, 15.79 ± 3.07 mg and 7.40 ± 1.65%.
In the same order, the values of “1,3-dioxo-2-{4′-oxyacetyl-[N^ω-(Pro-Ala-Lys)-Lys-Arg-Gly-Asp-Val]phenyl}-4,4,5,5-tetramethylimidazoline (K([Lys-Ala-Pro])RGDV; not fully specified (N-terminus); also: 4′-oxyacetylphenyl-1,3-dioxo-4,4,5,5-tetramethylimidazoline (nitronyl nitroxide) conjugate, attachment amine not clear) [Ik]” are 4.5 mm, 25.00 ± 1.54 mg, 15.47 ± 2.61 mg and 7.86 ± 1.02%.

These data come from US10806798B2, “Compound with effects of thrombolysis, free radical scavenging and thrombus-targeting” (Shanghai Lumosa Therapeutics Co., Ltd., priority 2012, dated 2020).
